The values that follow come from PubChem BioAssay AID330 (DTP/NCI, 2004).

This assay relates to P388 leukemia ip, CD2F1 mice, survival T/C. Briefly: NCI In Vivo Anticancer Drug Screen. Data for tumor model P388 Leukemia (intraperitoneal) in CD2F1 (CDF1) mice. The settings on record: endpoint: median survival time, higher = longer survival. The method, boiled down:
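Mice carrying the transplanted tumor received test compound or vehicle. Survival was recorded in each group, and the value is the treated-group measurement divided by that of the vehicle-treated control group.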

Where [1] appears, read: dose: 2.5 mg/kg/injection, schedule: Q01DX009 (ip), vehicle: Klucel (hydroxypropylcellulose) (HPC).
Where [2] appears, read: dose: 5.0 mg/kg/injection, schedule: Q01DX009 (ip), vehicle: Klucel (hydroxypropylcellulose) (HPC).
The mark [3] stands for this setting: dose: 100.0 mg/kg/injection, schedule: Q04DX003 (ip), vehicle: Klucel (hydroxypropylcellulose) (HPC).
[4] abbreviates: dose: 200.0 mg/kg/injection, schedule: Q04DX003 (ip), vehicle: Klucel (hydroxypropylcellulose) (HPC).
The mark [5] stands for this setting: dose: 400.0 mg/kg/injection, schedule: Q04DX003 (ip), vehicle: Klucel (hydroxypropylcellulose) (HPC).
Where [6] appears, read: dose: 50.0 mg/kg/injection, schedule: Q01DX005 (ip), vehicle: saline with Tween-80.
The mark [7] stands for this setting: dose: 100.0 mg/kg/injection, schedule: Q01DX005 (ip), vehicle: saline with Tween-80.
Setting [8] is: dose: 200.0 mg/kg/injection, schedule: Q01DX005 (ip), vehicle: saline with Tween-80.
Setting [9] is: dose: 50.0 mg/kg/injection, schedule: Q01DX009 (ip), vehicle: saline with Tween-80.
The mark [10] stands for this setting: dose: 100.0 mg/kg/injection, schedule: Q01DX009 (ip), vehicle: saline with Tween-80.
The mark [11] stands for this setting: dose: 50.0 mg/kg/injection, schedule: Q01DX009 (ip), vehicle: saline.
Where [12] appears, read: dose: 100.0 mg/kg/injection, schedule: Q01DX009 (ip), vehicle: saline.
The mark [13] stands for this setting: dose: 200.0 mg/kg/injection, schedule: Q01DX009 (ip), vehicle: saline.
The mark [14] stands for this setting: dose: 200.0 mg/kg/injection, schedule: Q01DX009 (ip), vehicle: saline with Tween-80.
Where [15] appears, read: dose: 400.0 mg/kg/injection, schedule: Q01DX009 (ip), vehicle: saline with Tween-80.

“And” between values parts separate entries of the source, which are not always exact repeats. Identical values can stand only once. Inconclusive results and toxic doses are left out. Square brackets hold non-standard residues; d marks the D form. Peptide text beside a SMILES is read from it. Nva = CCC[CH](N)C(=O)O

With `O=C(CCN1CC1)Nc1cccc(NC(=O)CCN2CC2)c1`, the T/C reads like this: (dose: 1.8 mg/kg/injection, schedule: Q01DX009 (ip), vehicle: Klucel (hydroxypropylcellulose) (HPC)) 176 % of control; under setting [1], 158 % of control and 169 % of control and 185 % of control; (dose: 3.0 mg/kg/injection, schedule: Q01DX009 (ip), vehicle: Klucel (hydroxypropylcellulose) (HPC)) 174 % of control; under setting [2], 167 % of control and 191 % of control and 209 % of control; (dose: 6.0 mg/kg/injection, schedule: Q01DX009 (ip), vehicle: Klucel (hydroxypropylcellulose) (HPC)) 186 % of control; (dose: 15.0 mg/kg/injection, schedule: Q01DX009 (ip), vehicle: Klucel (hydroxypropylcellulose) (HPC)) 88 % of control. Moreover, the T/C (dose: 20.0 mg/kg/injection, schedule: Q01DX009 (ip), vehicle: Klucel (hydroxypropylcellulose) (HPC)) was 116 % of control.
In the case of `Nc1cc2nc3ccccc3c(=O)n2[nH]1`, the T/C (dose: 50.0 mg/kg/injection, schedule: Q01DX005 (ip), vehicle: Klucel (hydroxypropylcellulose) (HPC)) was 98 % of control; the T/C (dose: 100.0 mg/kg/injection, schedule: Q01DX005 (ip), vehicle: Klucel (hydroxypropylcellulose) (HPC)) is 91 % of control; the T/C (dose: 200.0 mg/kg/injection, schedule: Q01DX005 (ip), vehicle: Klucel (hydroxypropylcellulose) (HPC)) is 86 % of control.
`COc1cc(NCCCNCC(C)(C)C)c2ncccc2c1`: the T/C (dose: 1.25 mg/kg/injection, schedule: Q01DX009 (ip), vehicle: Klucel (hydroxypropylcellulose) (HPC)) is 100 % of control; the T/C under setting [1] was 95 % of control; the T/C under setting [2] is 94 % of control; the T/C (dose: 10.0 mg/kg/injection, schedule: Q01DX009 (ip), vehicle: Klucel (hydroxypropylcellulose) (HPC)) was 99 % of control.
As for `O=C(Nc1ccc(Cl)cc1)OCC1C2C=CC(C2)C1CO` (configuration not stated), the T/C reads like this: under setting [3], 101 % of control; under setting [4], 95 % of control; under setting [5], 104 % of control.
On to `O=C1CC2(CCCCC2)C(=O)N1c1ccc(N2C(=O)CC3(CCCCC3)C2=O)cc1`, for which the T/C under setting [3] was 99 % of control, the T/C under setting [4] was 93 % of control and the T/C under setting [5] is 96 % of control.
Consider `CNC(=O)Oc1ccc(Sc2ccc(OC(=O)NC)c(Cl)c2)cc1Cl`, for which the T/C reads like this: (dose: 50.0 mg/kg/injection, schedule: Q01DX005 (ip), vehicle: saline + Tween-80 + alcohol) 106 % of control; under setting [6], 99 % of control and 118 % of control; (dose: 100.0 mg/kg/injection, schedule: Q01DX005 (ip), vehicle: saline + Tween-80 + alcohol) 119 % of control; under setting [7], 102 % of control and 118 % of control; (dose: 200.0 mg/kg/injection, schedule: Q01DX005 (ip), vehicle: saline + Tween-80 + alcohol) 114 % of control; under setting [8], 117 % of control. Besides, the T/C (dose: 400.0 mg/kg/injection, schedule: Q01DX005 (ip), vehicle: saline + Tween-80 + alcohol) is 124 % of control.
Take `O=C(NC(=S)Nc1ccsc1)c1ccccc1`: the T/C is 90 % of control under setting [9] and 88 % of control under setting [10].
In the case of `Cc1ncc[nH]1`, the T/C is 90 % of control under setting [11], 92 % of control under setting [12] and 89 % of control under setting [13].
Turning to `Cc1cc(C)n(-c2ccnc(N3CCOCC3)n2)n1`, the T/C is, setting by setting: (dose: 100.0 mg/kg/injection, schedule: Q01DX001 (ip), vehicle: saline) 100 % of control; (dose: 200.0 mg/kg/injection, schedule: Q01DX001 (ip), vehicle: saline) 96 % of control; (dose: 400.0 mg/kg/injection, schedule: Q01DX001 (ip), vehicle: saline) 97 % of control.
Turning to `O=C1NC2(CCCCC2)C(=O)N1CO`, the T/C runs as follows: (dose: 25.0 mg/kg/injection, schedule: Q01DX005 (ip), vehicle: saline with Tween-80) 101 % of control and 109 % of control; under setting [6], 100 % of control and 101 % of control; under setting [7], 103 % of control and 108 % of control; under setting [8], 116 % of control.
As to `[O-]c1n[n+](Cc2ccc(Cl)cc2)no1`, the T/C runs as follows: under setting [3], 102 % of control; under setting [4], 119 % of control.
As for `CCCC(N)C(=O)NC(C(=O)O)C(C)C` (configuration not stated) (H-[Nva]-Val-OH; configuration not given here), the T/C was 100 % of control under setting [11], 103 % of control under setting [12] and 100 % of control under setting [13].
For the molecule `Cn1ncc2c(N)cc(=O)[nH]c21`, the T/C is 101 % of control (dose: 100.0 mg/kg/injection, schedule: Q01DX001 (ip), vehicle: saline with Tween-80); 94 % of control (dose: 200.0 mg/kg/injection, schedule: Q01DX001 (ip), vehicle: saline with Tween-80); 104 % of control (dose: 400.0 mg/kg/injection, schedule: Q01DX001 (ip), vehicle: saline with Tween-80).
As to `CSC1=NC(C)(C)N=C(Oc2cc(Cl)cc(Cl)c2)N1`, the T/C by setting is: (dose: 60.0 mg/kg/injection, schedule: Q01DX005 (ip), vehicle: saline with Tween-80) 89 % of control; (dose: 120.0 mg/kg/injection, schedule: Q01DX005 (ip), vehicle: saline with Tween-80) 94 % of control; (dose: 240.0 mg/kg/injection, schedule: Q01DX005 (ip), vehicle: saline with Tween-80) 92 % of control.
Turning to `CCC12OCCN1CC(C)O2` (configuration not stated), the T/C is 98 % of control under setting [9], 111 % of control under setting [10], 113 % of control under setting [14] and 119 % of control under setting [15].
Take `OC(c1ccccc1)C1CC=CCC1` (configuration not stated): the T/C runs as follows: (dose: 12.5 mg/kg/injection, schedule: Q04DX003 (ip), vehicle: saline) 97 % of control; (dose: 25.0 mg/kg/injection, schedule: Q04DX003 (ip), vehicle: saline with Tween-80) 101 % of control and 98 % of control; (dose: 25.0 mg/kg/injection, schedule: Q04DX003 (ip), vehicle: saline) 105 % of control; (dose: 50.0 mg/kg/injection, schedule: Q04DX003 (ip), vehicle: saline with Tween-80) 111 % of control and 96 % of control; (dose: 50.0 mg/kg/injection, schedule: Q04DX003 (ip), vehicle: saline) 109 % of control; (dose: 100.0 mg/kg/injection, schedule: Q04DX003 (ip), vehicle: saline with Tween-80) 99 % of control. The T/C is 103 % of control (dose: 100.0 mg/kg/injection, schedule: Q04DX003 (ip), vehicle: saline) and 99 % of control (dose: 200.0 mg/kg/injection, schedule: Q04DX003 (ip), vehicle: saline with Tween-80).
`N[C@H](Cc1c[nH]c2ccccc12)C(=O)O`: the T/C was 98 % of control under setting [10], 103 % of control under setting [14] and 103 % of control under setting [15].
With `Cn1c2ccccc2c2nnc(N/N=C/c3ccc(Cl)cc3)nc21`, the T/C reads like this: (dose: 100.0 mg/kg/injection, schedule: Q04DX002 (ip), vehicle: saline with Tween-80) 88 % of control; (dose: 200.0 mg/kg/injection, schedule: Q04DX002 (ip), vehicle: saline with Tween-80) 87 % of control; (dose: 400.0 mg/kg/injection, schedule: Q04DX002 (ip), vehicle: saline with Tween-80) 98 % of control.
In the case of `CN(C)CC(CN(C)C)C(=O)c1ccc(Cl)cc1`, the T/C was 107 % of control and 95 % of control and 96 % of control (dose: 6.25 mg/kg/injection, schedule: Q01DX005 (ip), vehicle: saline); 107 % of control and 115 % of control and 116 % of control (dose: 12.5 mg/kg/injection, schedule: Q01DX005 (ip), vehicle: saline); 107 % of control and 118 % of control and 124 % of control (dose: 25.0 mg/kg/injection, schedule: Q01DX005 (ip), vehicle: saline); 104 % of control and 113 % of control (dose: 50.0 mg/kg/injection, schedule: Q01DX005 (ip), vehicle: saline).
Regarding `CCOc1ccccc1/C=N\NC(=O)C(=O)N/N=C\c1ccccc1OCC`, the T/C is 98 % of control (dose: 1.56 mg/kg/injection, schedule: Q01DX009 (ip), vehicle: Klucel (hydroxypropylcellulose) (HPC)); 94 % of control (dose: 3.12 mg/kg/injection, schedule: Q01DX009 (ip), vehicle: Klucel (hydroxypropylcellulose) (HPC)); 86 % of control and 91 % of control (dose: 6.25 mg/kg/injection, schedule: Q01DX009 (ip), vehicle: Klucel (hydroxypropylcellulose) (HPC)); 90 % of control (dose: 50.0 mg/kg/injection, schedule: Q01DX009 (ip), vehicle: Klucel (hydroxypropylcellulose) (HPC)); 97 % of control (dose: 200.0 mg/kg/injection, schedule: Q01DX009 (ip), vehicle: Klucel (hydroxypropylcellulose) (HPC)).
